Assays:
Format in all cases: in vivo
Kochia (Kochia scoparia) [1] = test: Test A preemergence; conditions: Bassia scoparia, pre-emergence, 240 h, 0 to 100 scale where 0 is no effect and 100 is complete control, read-out: Kochia plant response rating; for pest or weed control at 31 g/ha: 31 g ai/ha, Preemergence; for pest or weed control at 125 g/ha: 125 g ai/ha, preemergence, approx. 10 d
Method in brief: (§1)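 Preemergence directed soil spray on seeded pots, or postemergence application to plants 2–10 cm, one- to two-leaf. Solvent mixture non-phytotoxic, with surfactant. Scored ~10 d later, visually, 0–100 vs untreated.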

[2] = test system: barnyardgrass (Echinochloa crus-galli); test: Test A preemergence; conditions: Echinochloa crus-galli, pre-emergence, 240 h, 0 to 100 scale where 0 is no effect and 100 is complete control, read-out: Barnyardgrass plant response rating; for pest or weed control at 31 g/ha: 31 g ai/ha, Preemergence; for pest or weed control at 125 g/ha: 125 g ai/ha, preemergence, approx. 10 d
Method in brief: as §1

[3] = test system: giant foxtail (Setaria faberii); test: Test A preemergence; conditions: Setaria faberi, pre-emergence, 240 h, 0 to 100 scale where 0 is no effect and 100 is complete control, read-out: Foxtail, Giant plant response rating; for pest or weed control at 31 g/ha: 31 g ai/ha, Preemergence; for pest or weed control at 125 g/ha: 125 g ai/ha, preemergence, approx. 10 d
Method in brief: as §1

[4] = test system: pigweed (Amaranthus retroflexus); test: Test A preemergence; conditions: Amaranthus retroflexus, pre-emergence, 240 h, 0 to 100 scale where 0 is no effect and 100 is complete control, read-out: Pigweed plant response rating; for pest or weed control at 31 g/ha: 31 g ai/ha, Preemergence; for pest or weed control at 125 g/ha: 125 g ai/ha, preemergence, approx. 10 d
[5] = test system: ragweed (common ragweed, Ambrosia elatior); test: Test A preemergence; conditions: Ambrosia artemisiifolia, pre-emergence, 240 h, 0 to 100 scale where 0 is no effect and 100 is complete control, read-out: Ragweed plant response rating; for pest or weed control at 31 g/ha: 31 g ai/ha, Preemergence; for pest or weed control at 125 g/ha: 125 g ai/ha, preemergence, approx. 10 d
Method in brief: as §1

[6] = test system: ryegrass, Italian (Italian ryegrass, Lolium multiflorum); test: Test A preemergence; conditions: Lolium multiflorum, pre-emergence, 240 h, 0 to 100 scale where 0 is no effect and 100 is complete control, read-out: Ryegrass, Italian plant response rating; for pest or weed control at 31 g/ha: 31 g ai/ha, Preemergence; for pest or weed control at 125 g/ha: 125 g ai/ha, preemergence, approx. 10 d
Method in brief: as §1

Kochia (Kochia scoparia) [7] = test: Test A postemergence; conditions: Bassia scoparia, post-emergence, 240 h; for pest or weed control at 125 g/ha: 125 g ai/ha, postemergence, visual injury on 0 to 100 scale (0 no effect, 100 complete control), approx. 10 d, read-out: Kochia plant response rating; for pest or weed control at 31 g/ha: Postemergence, 31 g ai/ha, visual injury after approx. 10 d, 0 to 100 scale, 0 no effect, 100 complete control, read-out: Plant response rating, Kochia
Method in brief: as §1

[8] = test system: barnyardgrass (Echinochloa crus-galli); test: Test A postemergence; conditions: Echinochloa crus-galli, post-emergence, 240 h; for pest or weed control at 125 g/ha: 125 g ai/ha, postemergence, visual injury on 0 to 100 scale (0 no effect, 100 complete control), approx. 10 d, read-out: Barnyardgrass plant response rating; for pest or weed control at 31 g/ha: Postemergence, 31 g ai/ha, visual injury after approx. 10 d, 0 to 100 scale, 0 no effect, 100 complete control, read-out: Plant response rating, Barnyardgrass
Method in brief: as §1

[9] = test system: blackgrass (Alopecurus myosuroides); test: Test A postemergence; conditions: Alopecurus myosuroides, post-emergence, 240 h; for pest or weed control at 125 g/ha: 125 g ai/ha, postemergence, visual injury on 0 to 100 scale (0 no effect, 100 complete control), approx. 10 d, read-out: Blackgrass plant response rating; for pest or weed control at 31 g/ha: Postemergence, 31 g ai/ha, visual injury after approx. 10 d, 0 to 100 scale, 0 no effect, 100 complete control, read-out: Plant response rating, Blackgrass
Method in brief: as §1

corn (Zea mays) = test: Test A postemergence; conditions: Zea mays, post-emergence, 240 h; for plant injury at 125 g/ha: 125 g ai/ha, postemergence, visual injury on 0 to 100 scale (0 no effect, 100 complete control), approx. 10 d, read-out: Corn plant response rating; for Corn plant response rating (crop injury, 0 = no effect, 100 = complete kill) at 31 g/ha: Postemergence, 31 g ai/ha, visual injury after approx. 10 d, 0 to 100 scale, 100 complete control
Method in brief: as §1

[10] = test system: giant foxtail (Setaria faberii); test: Test A postemergence; conditions: Setaria faberi, post-emergence, 240 h; for pest or weed control at 125 g/ha: 125 g ai/ha, postemergence, visual injury on 0 to 100 scale (0 no effect, 100 complete control), approx. 10 d, read-out: Foxtail, Giant plant response rating; for pest or weed control at 31 g/ha: Postemergence, 31 g ai/ha, visual injury after approx. 10 d, 0 to 100 scale, 0 no effect, 100 complete control, read-out: Plant response rating, Foxtail, Giant
Method in brief: as §1

[11] = test system: pigweed (Amaranthus retroflexus); test: Test A postemergence; conditions: Amaranthus retroflexus, post-emergence, 240 h; for pest or weed control at 125 g/ha: 125 g ai/ha, postemergence, visual injury on 0 to 100 scale (0 no effect, 100 complete control), approx. 10 d, read-out: Pigweed plant response rating; for pest or weed control at 31 g/ha: Postemergence, 31 g ai/ha, visual injury after approx. 10 d, 0 to 100 scale, 0 no effect, 100 complete control, read-out: Plant response rating, Pigweed
Method in brief: as §1

[12] = test system: ragweed (common ragweed, Ambrosia elatior); test: Test A postemergence; conditions: Ambrosia artemisiifolia, post-emergence, 240 h; for pest or weed control at 125 g/ha: 125 g ai/ha, postemergence, visual injury on 0 to 100 scale (0 no effect, 100 complete control), approx. 10 d, read-out: Ragweed plant response rating; for pest or weed control at 31 g/ha: Postemergence, 31 g ai/ha, visual injury after approx. 10 d, 0 to 100 scale, 0 no effect, 100 complete control, read-out: Plant response rating, Ragweed
Method in brief: as §1

[13] = test system: ryegrass, Italian (Italian ryegrass, Lolium multiflorum); test: Test A postemergence; conditions: Lolium multiflorum, post-emergence, 240 h; for pest or weed control at 125 g/ha: 125 g ai/ha, postemergence, visual injury on 0 to 100 scale (0 no effect, 100 complete control), approx. 10 d, read-out: Ryegrass, Italian plant response rating; for pest or weed control at 31 g/ha: Postemergence, 31 g ai/ha, visual injury after approx. 10 d, 0 to 100 scale, 0 no effect, 100 complete control, read-out: Plant response rating, Ryegrass, Italian
Method in brief: as §1

[14] = test system: wheat (Triticum aestivum); test: Test A postemergence; conditions: Triticum aestivum, post-emergence, 240 h; for plant injury at 125 g/ha: 125 g ai/ha, postemergence, visual injury on 0 to 100 scale (0 no effect, 100 complete control), approx. 10 d, read-out: Wheat plant response rating; for plant injury at 31 g/ha: Postemergence, 31 g ai/ha, visual injury after approx. 10 d, 0 to 100 scale, 0 no effect, 100 complete control, read-out: Plant response rating, Wheat
Method in brief: as §1

[15] = test system: barnyardgrass (Echinochloa crus-galli); test: Test B flooded paddy test; conditions: Echinochloa crus-galli, 250 g ai/ha, Flood; 0 to 100 scale where 0 is no effect and 100 is complete control; read-out: Barnyardgrass plant response rating
Method in brief: (§2)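 Evaluation by eye, against controls, occurred 13–15 d post-treatment in a greenhouse, using a 0 (no effect) to 100 (complete control) scale. Application was into the paddy water, 3 cm deep over the soil, on 2-leaf plants.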

[16] = test system: ducksalad (Heteranthera limosa); test: Test B flooded paddy test; conditions: Heteranthera limosa, 250 g ai/ha, Flood; 0 to 100 scale where 0 is no effect and 100 is complete control; read-out: Ducksalad plant response rating
Method in brief: as §2

rice (Oryra sativa) = test: Test B flooded paddy test; conditions: Oryza sativa, 250 g ai/ha, Flood; 0 to 100 scale where 0 is no effect and 100 is complete control; read-out: Rice plant response rating
Method in brief: as §2

[17] = test system: sedge, umbrella (small-flower umbrella sedge, Cyperus difformis); test: Test B flooded paddy test; conditions: Cyperus difformis, 250 g ai/ha, Flood; 0 to 100 scale where 0 is no effect and 100 is complete control; read-out: Sedge, Umbrella plant response rating
Method in brief: as §2

Structure (SMILES): CN1C[C@H](c2cc(C(F)F)cs2)[C@@H](C(=O)Nc2cccc(C#N)c2F)C1=O [Compound 1093]
- pest or weed control at 31 g/ha (Kochia (Kochia scoparia) [1]): 0%
- pest or weed control at 125 g/ha (Kochia (Kochia scoparia) [1]): 50%
- pest or weed control at 31 g/ha [2]: 40%
- pest or weed control at 125 g/ha [2]: 90%
- pest or weed control at 31 g/ha [3]: 100%
- pest or weed control at 125 g/ha [3]: 100%
- pest or weed control at 31 g/ha [4]: 0%
- pest or weed control at 125 g/ha [4]: 80%
- pest or weed control at 31 g/ha [5]: 0%
- pest or weed control at 125 g/ha [5]: 20%
- pest or weed control at 31 g/ha [6]: 0%
- pest or weed control at 125 g/ha [6]: 0%
- pest or weed control at 125 g/ha (Kochia (Kochia scoparia) [7]): 20%
- pest or weed control at 31 g/ha (Kochia (Kochia scoparia) [7]): 0%
- pest or weed control at 125 g/ha [8]: 80%
- pest or weed control at 31 g/ha [8]: 40%
- pest or weed control at 125 g/ha [9]: 0%
- pest or weed control at 31 g/ha [9]: 0%
- plant injury at 125 g/ha (corn (Zea mays)): 0%
- Corn plant response rating (crop injury, 0 = no effect, 100 = complete kill) at 31 g/ha (corn (Zea mays)): 0%
- pest or weed control at 125 g/ha [10]: 90%
- pest or weed control at 31 g/ha [10]: 30%
- pest or weed control at 125 g/ha [11]: 20%
- pest or weed control at 31 g/ha [11]: 0%
- pest or weed control at 125 g/ha [12]: 30%
- pest or weed control at 31 g/ha [12]: 0%
- pest or weed control at 125 g/ha [13]: 0%
- pest or weed control at 31 g/ha [13]: 0%
- plant injury at 125 g/ha [14]: 0%
- plant injury at 31 g/ha [14]: 0%
- pest or weed control at 250 g/ha [15]: 60%
- pest or weed control at 250 g/ha [16]: 80%
- pest or weed control at 250 g/ha (rice (Oryra sativa)): 0%
- pest or weed control at 250 g/ha [17]: 0%

Structure (SMILES): CN1C[C@H](c2cc(C(F)F)cs2)[C@@H](C(=O)Nc2cccc(F)c2C#N)C1=O [Compound 1092]
- pest or weed control at 31 g/ha (Kochia (Kochia scoparia) [1]): 70%
- pest or weed control at 125 g/ha (Kochia (Kochia scoparia) [1]): 0%
- pest or weed control at 31 g/ha [2]: 40%
- pest or weed control at 125 g/ha [2]: 90%
- pest or weed control at 31 g/ha [3]: 90%
- pest or weed control at 125 g/ha [3]: 100%
- pest or weed control at 31 g/ha [4]: 0%
- pest or weed control at 125 g/ha [4]: 0%
- pest or weed control at 31 g/ha [5]: 0%
- pest or weed control at 125 g/ha [5]: 40%
- pest or weed control at 31 g/ha [6]: 0%
- pest or weed control at 125 g/ha [6]: 0%
- pest or weed control at 125 g/ha (Kochia (Kochia scoparia) [7]): 20%
- pest or weed control at 31 g/ha (Kochia (Kochia scoparia) [7]): 0%
- pest or weed control at 125 g/ha [8]: 90%
- pest or weed control at 31 g/ha [8]: 50%
- pest or weed control at 125 g/ha [9]: 20%
- pest or weed control at 31 g/ha [9]: 0%
- plant injury at 125 g/ha (corn (Zea mays)): 0%
- Corn plant response rating (crop injury, 0 = no effect, 100 = complete kill) at 31 g/ha (corn (Zea mays)): 0%
- pest or weed control at 125 g/ha [10]: 90%
- pest or weed control at 31 g/ha [10]: 30%
- pest or weed control at 125 g/ha [11]: 20%
- pest or weed control at 31 g/ha [11]: 0%
- pest or weed control at 125 g/ha [12]: 50%
- pest or weed control at 31 g/ha [12]: 0%
- pest or weed control at 125 g/ha [13]: 0%
- pest or weed control at 31 g/ha [13]: 0%
- plant injury at 125 g/ha [14]: 0%
- plant injury at 31 g/ha [14]: 0%
- pest or weed control at 250 g/ha [15]: 60%
- pest or weed control at 250 g/ha [16]: 85%
- pest or weed control at 250 g/ha (rice (Oryra sativa)): 0%
- pest or weed control at 250 g/ha [17]: 0%
